Laboratory results as given in patent publication US6586402B1, “LH-RH peptide analogues, their uses and pharmaceutical compositions containing them” (Laboratoire Theramex, priority 1997, dated 2003).
Entries after “also recorded” stand apart in the source; their conditions may differ. Square brackets hold non-standard residues; d marks the D form. Peptide text beside a SMILES is read from it. 1Nal = N[C@@H](Cc1cccc2ccccc12)C(=O)O; 2Nal = N[C@@H](Cc1ccc2ccccc2c1)C(=O)O; Bta = N[C@@H](Cc1csc2ccccc12)C(=O)O; tBuAla = CC(C)(C)C[C@H](N)C(=O)O; d3Pal = N[C@H](Cc1cccnc1)C(=O)O; d4Pal = N[C@H](Cc1ccncc1)C(=O)O; pGlu = O=C1CC[C@@H](C(=O)O)N1

Legend:
[1] = target: LH-RH receptors (membrane fractions of pituitaries from female Sprague Dawley rats) (rat (female Sprague Dawley)) (UniProt P30969); test: competition with [125I]-buserelin, rat pituitary membranes; Ki by Cheng-Prusoff
LH-RH receptors = target: T1, LH-RH receptors (Rattus norvegicus, UniProt P30969); test: Stimulation of testosterone secretion in adult male rats after subcutaneous injection (agonist activity in vivo); set-up: exert an agonist activity upon the LH-RH receptors in vivo; from tissue; host or cells: whole animal, adult male Sprague-Dawley rats; species or system Sprague-Dawley rats; settings: for Total plasma testosterone: 10 ng/kg subcutaneous in PBS, blood two hours later, male Sprague-Dawley rats; for agonistic potency in words: comment on Tables 2 and 3
T1 sequence (P30969 1-327): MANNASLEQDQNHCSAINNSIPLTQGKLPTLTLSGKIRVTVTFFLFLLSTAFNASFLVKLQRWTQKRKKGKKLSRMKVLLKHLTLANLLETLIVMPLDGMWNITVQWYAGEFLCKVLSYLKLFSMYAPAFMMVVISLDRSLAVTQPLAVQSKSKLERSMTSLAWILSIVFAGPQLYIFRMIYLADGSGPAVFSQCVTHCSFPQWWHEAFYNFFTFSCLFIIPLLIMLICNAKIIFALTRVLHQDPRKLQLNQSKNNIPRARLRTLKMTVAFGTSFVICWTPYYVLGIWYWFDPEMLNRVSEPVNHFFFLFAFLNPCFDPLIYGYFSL
Protocol: The peptides according to the general formula (IIa) exert an agonist activity upon the LH-RH receptors in vivo, resulting in the stimulation of LH secretion by the pituitary, which, in males, stimulates the secretion of testosterone by the testis.
Two hours later, blood samples were drawn for total plasma testosterone determination by direct radioimmunoassay (Immunotech).
At this intermediate dose of 10 ng/kg, several examples with Npg^7 or Ada^7 in place of Leu^7 according to the invention were screened for agonistic activity (Tables 2 and 3). When available from Bachem (France) or Sigma (France), the corresponding standard agonist with Leu^7 was tested for comparison.

Compound | Total plasma testosterone (LH-RH receptors; Table 2, vehicle 2.7 ± 0.3) | agonistic potency in words (LH-RH receptors; 10 ng/kg s.c.) | further results
pGlu-His-Trp-Ser-Tyr-D-Nal-Npg-Arg-Pro-NEt (peptide) | – | – | pKi [1]: 9.5 -log Ki
pGlu-His-Trp-Ser-Tyr-D-Npg-Npg-Arg-Pro-NEt (peptide) | – | – | pKi [1]: 8.73 -log Ki
pGlu-His-Trp-Ser-Tyr-D-Ala-Npg-Arg-Pro-NEt (peptide) | – | – | pKi [1]: 10 -log Ki
pGlu-His-Trp-Ser-Tyr-D-Leu-Ada-Arg-Pro-NEt [Example 29] | 36.2 ± 4.5 nmol/L | – | –
CC(C)(C)C[C@H](NC(=O)[C@@H](Cc1cccnc1)NC(=O)[C@H](Cc1ccc(O)cc1)NC(=O)[C@H](CO)NC(=O)[C@H](Cc1c[nH]c2ccccc12)NC(=O)[C@H](Cc1c[nH]cn1)NC(=O)[C@@H]1CCC(=O)N1)C(=O)N[C@@H](CCCNC(=N)N)C(=O)N1CCC[C@H]1C(=O)NCC(N)=O [Example 20, pGlu-His-Trp-Ser-Tyr-D-Pal-Npg-Arg-Pro-Gly-NH2] ([pGlu]HWSY[d3Pal][tBuAla]RPG-NH2) | – | range of potency similar to that of leuprorelin or tryptorelin | Total plasma testosterone (LH-RH receptors; Table 3, vehicle 4.3 ± 1.2): 24.9 ± 5.0 nmol/L
CCNC(=O)[C@@H]1CCCN1C(=O)[C@H](CCCNC(=N)N)NC(=O)[C@H](CC(C)(C)C)N(C)C(=O)[C@@H](CC(C)C)NC(=O)[C@H](Cc1ccc(O)cc1)NC(=O)[C@H](CO)NC(=O)[C@H](Cc1c[nH]c2ccccc12)NC(=O)[C@H](Cc1c[nH]cn1)NC(=O)[C@@H]1CCC(=O)N1 [Example 23, pGlu-His-Trp-Ser-Tyr-D-Leu-MeNpg-Arg-Pro-NEt] | – | very strong agonistic activity; also recorded: more potent LH-RH agonists than current therapeutic LH-RH analogues | Total plasma testosterone (LH-RH receptors; Table 3, vehicle 4.3 ± 1.2): 49.4 ± 4.6 nmol/L
CCNC(=O)[C@@H]1CCCN1C(=O)[C@H](CCCNC(=N)N)NC(=O)[C@H](CC(C)(C)C)NC(=O)[C@@H](CC(C)C)NC(=O)[C@H](Cc1ccc(O)cc1)NC(=O)[C@H](CO)NC(=O)[C@H](Cc1csc2ccccc12)NC(=O)[C@H](Cc1c[nH]cn1)NC(=O)[C@@H]1CCC(=O)N1 [Example 26, pGlu-His-Bal-Ser-Tyr-D-Leu-Npg-Arg-Pro-NEt] ([pGlu]H[Bta]SY[dL][tBuAla]RP-NHEt) | – | – | Total plasma testosterone (LH-RH receptors; Table 3, vehicle 4.3 ± 1.2): 12.2 ± 2.7 nmol/L
CCNC(=O)[C@@H]1CCCN1C(=O)[C@H](CCCNC(=N)N)NC(=O)[C@H](CC(C)(C)C)NC(=O)[C@@H](CC(C)C)NC(=O)[C@H](Cc1ccc(O)cc1)NC(=O)[C@H](CO)NC(=O)[C@H](Cc1ccc2ccccc2c1)NC(=O)[C@H](Cc1c[nH]cn1)NC(=O)[C@@H]1CCC(=O)N1 [Example 25, pGlu-His-2Nal-Ser-Tyr-D-Leu-Npg-Arg-Pro-NEt] ([pGlu]H[2Nal]SY[dL][tBuAla]RP-NHEt) | – | range of potency similar to that of leuprorelin or tryptorelin | Total plasma testosterone (LH-RH receptors; Table 3, vehicle 4.3 ± 1.2): 27.3 ± 6.9 nmol/L
AcD-Nal-D-pClPhe-D-Pal-Ser-Tyr-D-HCit-Npg-IprLys-Pro-D-Ala-NH2 (peptide) | – | – | pKi [1]: 10.1 -log Ki
pGlu-His-Trp-Ser-Tyr-D-Ala-Ada-Arg-Pro-NEt [Example 28] | 44.9 ± 6.0 nmol/L | the Ada^7 replacement was more favorable than Npg^7; also recorded: more potent LH-RH agonists than current therapeutic LH-RH analogues | –
pGlu-His-Trp-Ser-Tyr-D-Phe-Npg-Arg-Pro-NEt (peptide) | – | – | pKi [1]: 9.64 -log Ki
pGlu-His-Trp-Ser-Tyr-D-Trp-Npg-Arg-Pro-NEt (peptide) | – | – | pKi [1]: 9.79 -log Ki
CC(C)(C)C[C@H](NC(=O)CNC(=O)[C@H](Cc1ccc(O)cc1)NC(=O)[C@H](CO)NC(=O)[C@H](Cc1c[nH]c2ccccc12)NC(=O)[C@H](Cc1c[nH]cn1)NC(=O)[C@@H]1CCC(=O)N1)C(=O)N[C@@H](CCCNC(=N)N)C(=O)N1CCC[C@H]1C(=O)NCC(N)=O [Example 1, pGlu-His-Trp-Ser-Tyr-Gly-Npg-Arg-Pro-Gly-NH2] | – | – | activity in stimulating testosterone secretion relative to LH-RH (LH-RH receptors; FIG. 1, various doses s.c., 8 animals per point): a little more than twice as active as LH-RH
CC(C)(C)C[C@H](NC(=O)[C@@H](Cc1c[nH]c2ccccc12)NC(=O)[C@H](Cc1ccc(O)cc1)NC(=O)[C@H](CO)NC(=O)[C@H](Cc1c[nH]c2ccccc12)NC(=O)[C@H](Cc1c[nH]cn1)NC(=O)[C@@H]1CCC(=O)N1)C(=O)N[C@@H](CCCNC(=N)N)C(=O)N1CCC[C@H]1C(=O)NCC(N)=O [Example 11, pGlu-His-Trp-Ser-Tyr-D-Trp-Npg-Arg-Pro-Gly-NH2] ([pGlu]HWSY[dW][tBuAla]RPG-NH2) | 30.8 ± 3.5 nmol/L | Npg^7 led to more potent agonists than Ada^7 | activity in stimulating testosterone secretion relative to the Leu^7 counterpart (LH-RH receptors; 10 ng/kg s.c.): a little more than twice as active
CCNC(=O)[C@@H]1CCCN1C(=O)[C@H](CCCN=C(N)N)NC(=O)[C@H](CC(C)C)NC(=O)[C@@H](Cc1c[nH]c2ccccc12)NC(=O)[C@H](Cc1ccc(O)cc1)NC(=O)[C@H](CO)NC(=O)[C@H](Cc1c[nH]c2ccccc12)NC(=O)[C@H](Cc1cnc[nH]1)NC(=O)[C@@H]1CCC(=O)N1 [Deslorelin, reference compound] | 11.8 ± 3.5 nmol/L | – | –
CC(C)C[C@H](NC(=O)[C@@H](C)NC(=O)[C@H](Cc1ccc(O)cc1)NC(=O)[C@H](CO)NC(=O)[C@H](Cc1c[nH]c2ccccc12)NC(=O)[C@H](Cc1c[nH]cn1)NC(=O)[C@@H]1CCC(=O)N1)C(=O)N[C@@H](CCCNC(=N)N)C(=O)N1CCC[C@H]1C(=O)NCC(N)=O [[D-Ala^6]-LH-RH, reference compound] | 6.4 ± 1.9 nmol/L | – | –
CC(C)(C)C[C@H](NC(=O)[C@@H](Cc1ccncc1)NC(=O)[C@H](Cc1ccc(O)cc1)NC(=O)[C@H](CO)NC(=O)[C@H](Cc1c[nH]c2ccccc12)NC(=O)[C@H](Cc1c[nH]cn1)NC(=O)[C@@H]1CCC(=O)N1)C(=O)N[C@@H](CCCNC(=N)N)C(=O)N1CCC[C@H]1C(=O)NCC(N)=O [Example 21, pGlu-His-Trp-Ser-Tyr-D-4Pal-Npg-Arg-Pro-Gly-NH2] ([pGlu]HWSY[d4Pal][tBuAla]RPG-NH2) | – | range of potency similar to that of leuprorelin or tryptorelin | Total plasma testosterone (LH-RH receptors; Table 3, vehicle 4.3 ± 1.2): 32.4 ± 7.0 nmol/L
CC(C)C[C@H](NC(=O)[C@@H](Cc1c[nH]c2ccccc12)NC(=O)[C@H](Cc1ccc(O)cc1)NC(=O)[C@H](CO)NC(=O)[C@H](Cc1c[nH]c2ccccc12)NC(=O)[C@H](Cc1c[nH]cn1)NC(=O)[C@@H]1CCC(=O)N1)C(=O)N[C@@H](CCCNC(=N)N)C(=O)N1CCC[C@H]1C(=O)NCC(N)=O [Tryptorelin, reference compound] | 20.3 ± 2.5 nmol/L | – | –
pGlu-His-Trp-Ser-Tyr-D-Phe-Ada-Arg-Pro-NEt [Example 27] | 28.0 ± 4.1 nmol/L | the Ada^7 replacement was more favorable than Npg^7 | –
CCNC(=O)[C@@H]1CCCN1C(=O)[C@H](CCCNC(=N)N)NC(=O)[C@H](CC(C)C)NC(=O)[C@@H](Cc1ccccc1)NC(=O)[C@H](Cc1ccc(O)cc1)NC(=O)[C@H](CO)NC(=O)[C@H](Cc1c[nH]c2ccccc12)NC(=O)[C@H](Cc1c[nH]cn1)NC(=O)[C@@H]1CCC(=O)N1 [[D-Phe^6, Pro^9NEt]-LH-RH, reference compound] | 16.7 ± 4.3 nmol/L | – | –
CCNC(=O)[C@@H]1CCCN1C(=O)[C@H](CCCNC(=N)N)NC(=O)[C@H](CC(C)C)NC(=O)[C@@H](C)NC(=O)[C@H](Cc1ccc(O)cc1)NC(=O)[C@H](CO)NC(=O)[C@H](Cc1c[nH]c2ccccc12)NC(=O)[C@H](Cc1c[nH]cn1)NC(=O)[C@@H]1CCC(=O)N1 [[D-Ala^6, Pro^9NEt]-LH-RH, reference compound] | 30.6 ± 7.2 nmol/L | – | –
CCNC(=O)[C@@H]1CCCN1C(=O)[C@H](CCCNC(=N)N)NC(=O)[C@H](CC(C)C)NC(=O)[C@@H](CC(C)C)NC(=O)[C@H](Cc1ccc(O)cc1)NC(=O)[C@H](CO)NC(=O)[C@H](Cc1c[nH]c2ccccc12)NC(=O)[C@H](Cc1c[nH]cn1)NC(=O)[C@@H]1CCC(=O)N1 [Leuprorelin, reference compound] | 33.5 ± 3.5 nmol/L | – | –
CCNC(=O)[C@@H]1CCCN1C(=O)[C@H](CCCNC(=N)N)NC(=O)[C@H](CC(C)(C)C)NC(=O)[C@@H](CC(C)C)NC(=O)[C@H](Cc1ccc(O)cc1)NC(=O)[C@H](CO)NC(=O)[C@H](Cc1cccc2ccccc12)NC(=O)[C@H](Cc1c[nH]cn1)NC(=O)[C@@H]1CCC(=O)N1 [Example 24, pGlu-His-1Nal-Ser-Tyr-D-Leu-Npg-Arg-Pro-NEt] ([pGlu]H[1Nal]SY[dL][tBuAla]RP-NHEt) | – | – | Total plasma testosterone (LH-RH receptors; Table 3, vehicle 4.3 ± 1.2): 14.3 ± 4.3 nmol/L
pGlu-His-Trp-Ser-Tyr-D-Trp-Ada-Arg-Pro-Gly-NH2 [Example 30] | 24.8 ± 4.1 nmol/L | – | –
CC(C)C[C@@H](NC(=O)[C@H](Cc1ccc(O)cc1)NC(=O)[C@H](CO)NC(=O)[C@H](Cc1c[nH]c2ccccc12)NC(=O)[C@H](Cc1c[nH]cn1)NC(=O)[C@@H]1CCC(=O)N1)C(=O)N[C@@H](CC(C)(C)C)C(=O)N[C@@H](CCCNC(=N)N)C(=O)N1CCC[C@H]1C(=O)NCC(N)=O [Example 5, pGlu-His-Trp-Ser-Tyr-D-Leu-Npg-Arg-Pro-Gly-NH2] ([pGlu]HWSY[dL][tBuAla]RPG-NH2) | 21.2 ± 6.6 nmol/L | range of potency similar to that of leuprorelin or tryptorelin | –
